Source: the C3SDB collision cross section collection
Several values for one entry are separate records, joined by “and”; a condition that tells them apart may be missing. Identical values can stand only once.

Conditions: instrument: DT, stepped-field

| collision cross section (N2) ([M+Na]+) [Å²] | collision cross section (N2) ([M+K]+) | collision cross section (N2) ([M+H]+) [Å²] | Compound | further results |
| --- | --- | --- | --- | --- |
| – | – | – | OCC1OC(OC2C(CO)OC(OC3C(CO)OC(O)C(O)C3O)C(O)C2O)C(O)C(O)C1O (stereo not drawn) [(Hex)3] | collision cross section (N2) ([M+Na-H2O]+): 204.9 Å² |
| 259.5 | – | – | OCC1OC(OC2C(CO)OC(OC3C(CO)OC(OC4C(CO)OC(OC5C(CO)OC(O)C(O)C5O)C(O)C4O)C(O)C3O)C(O)C2O)C(O)C(O)C1O (stereo not drawn) [(Hex)5] | collision cross section (N2) ([M+H-H2O]+): 282.3 Å²; collision cross section (N2) ([M+Na-H2O]+): 263.1 Å² |
| 384.6 | 364.8 Å² and 367.1 Å² | – | OCC1OC(OC2C(CO)OC(OC3C(CO)OC(OC4C(CO)OC(OC5C(CO)OC(OC6C(CO)OC(OC7C(CO)OC(OC8C(CO)OC(OC9C(CO)OC(OC%10C(CO)OC(OC%11C(CO)OC(O)C(O)C%11O)C(O)C%10O)C(O)C9O)C(O)C8O)C(O)C7O)C(O)C6O)C(O)C5O)C(O)C4O)C(O)C3O)C(O)C2O)C(O)C(O)C1O (stereo not drawn) [(Hex)11] | collision cross section (N2) ([M+H-H2O]+): 379.1 Å²; collision cross section (N2) ([M+Li]+): 369.7 Å²; collision cross section (N2) ([M+Rb]+): 363.1 Å² and 369.7 Å² |
| – | – | 249 | C[C@H](N)C(=O)N[C@@H](C)C(=O)NCC(=O)N[C@@H](Cc1c[nH]cn1)C(=O)N[C@@H](CC(=O)O)C(=O)NCC(=O)N[C@@H](CCCCN)C(=O)O [AAGHDGK] | – |
| – | – | 228.3 | CC(C)C[C@H](NC(=O)[C@H](CC(=O)O)NC(=O)[C@H](C)N)C(=O)N[C@@H](C)C(=O)N[C@@H](CCCCN)C(=O)O [ADLAK] | – |
| – | – | 326.8 | CCC(C)[C@H](NC(=O)[C@H](CC(C)C)NC(=O)[C@H](CC(C)C)NC(=O)[C@H](CCC(=O)O)NC(=O)[C@H](CC(N)=O)NC(=O)[C@H](C)N)C(=O)N[C@@H](CC(N)=O)C(=O)N[C@H](C(=O)N[C@@H](CCCCN)C(=O)O)C(C)C (stereo partly drawn) [ANELLINVK] | – |
| 285.5 | 287.7 Å² | 285.2 | OC[C@H]1O[C@@H]2O[C@H]3[C@H](O)[C@@H](O)[C@@H](O[C@H]4[C@H](O)[C@@H](O)[C@@H](O[C@H]5[C@H](O)[C@@H](O)[C@@H](O[C@H]6[C@H](O)[C@@H](O)[C@@H](O[C@H]7[C@H](O)[C@@H](O)[C@@H](O[C@H]1[C@H](O)[C@H]2O)O[C@@H]7CO)O[C@@H]6CO)O[C@@H]5CO)O[C@@H]4CO)O[C@@H]3CO [Alpha-Cyclodextrin] | – |
| – | – | 195.8 | NCCCC[C@H](NC(=O)[C@H](CC(=O)O)NC(=O)CNC(=O)[C@@H](N)CC(=O)O)C(=O)O [DGDK] | – |
| – | – | 204.7 | CC(C)[C@H](NC(=O)[C@@H](N)CC(=O)O)C(=O)N[C@@H](CS)C(=O)N[C@@H](CCCCN)C(=O)O [DVCK] | – |
| – | – | 295.5 | CC(C)C[C@H](NC(=O)[C@H](Cc1ccc(O)cc1)NC(=O)[C@H](C)NC(=O)[C@H](C)NC(=O)[C@@H](N)Cc1ccccc1)C(=O)N[C@@H](CCC(=O)O)C(=O)N[C@@H](CCCNC(=N)N)C(=O)O [FAAYLER] | – |
| 243.9 | – | – | NCCCC[C@H](NC(=O)[C@H](CC(N)=O)NC(=O)[C@H](CCC(N)=O)NC(=O)[C@@H](N)Cc1ccccc1)C(=O)O [FQNK] | – |
| – | – | 237.3 | N=C(N)NCCC[C@H](NC(=O)[C@H](CC(=O)O)NC(=O)[C@H](CO)NC(=O)[C@H](CO)NC(=O)[C@@H](N)Cc1ccccc1)C(=O)O [FSSDR] | – |
| – | – | 231 | NCCCC[C@H](NC(=O)CNC(=O)[C@H](Cc1c[nH]c2ccccc12)NC(=O)[C@@H](N)Cc1ccccc1)C(=O)O [FWGK] | – |
| 295.8 | – | – | CCCCCCCCCCCCC=CC[C@@H](O)[C@H](CO[C@@H]1O[C@H](CO)[C@@H](O)C(O)C1O)NC(=O)CC=CCC=CCCCCCCCCCCCCCCC (stereo partly drawn) [GlcCer(40:3)] | – |
| – | 316.4 Å² | – | CCCCC=CCC=CCC=CCC=CCC=CCC=CCC=CCC=CCC(=O)N[C@@H](CO[C@@H]1O[C@H](CO)[C@@H](O)C(O)C1O)[C@H](O)CC=CCCCCCCCCCCCC (stereo partly drawn) [GlcCer(47:9)] | – |
| – | – | 348.4 | CCC(C)[C@H](N)C(=O)NCC(=O)N[C@@H](CO)C(=O)N[C@@H](CCC(=O)O)C(=O)N[C@H](C(=O)N[C@@H](Cc1ccc(O)cc1)C(=O)N[C@@H](Cc1c[nH]cn1)C(=O)N[C@@H](CC(N)=O)C(=O)N[C@@H](CC(C)C)C(=O)N[C@@H](CCCCN)C(=O)O)C(C)C (stereo partly drawn) [IGSEVYHNLK] | – |
| – | – | 258.5 | CCC(C)[C@H](N)C(=O)N[C@@H](Cc1c[nH]cn1)C(=O)N[C@@H](CCC(=O)O)C(=O)N[C@@H](Cc1ccc(O)cc1)C(=O)N[C@@H](CCCCN)C(=O)O (stereo partly drawn) [IHEYK] | – |
| – | – | 238.6 | CC(C)C[C@H](N)C(=O)N[C@@H](Cc1c[nH]c2ccccc12)C(=O)N[C@@H](CO)C(=O)N[C@@H](C)C(=O)N[C@@H](CCCCN)C(=O)O [LWSAK] | – |
| 271.1 | 267.2 Å² | – | CC(=O)N[C@H]1[C@H](O[C@H]2[C@@H](O)[C@@H](CO)O[C@@H](O[C@@H]([C@H](O)[C@@H](O)C=O)[C@H](O)CO)[C@@H]2O)O[C@H](CO)[C@@H](O[C@@H]2O[C@@H](C)[C@@H](O)[C@@H](O)[C@@H]2O)[C@@H]1O[C@@H]1O[C@H](CO)[C@H](O)[C@H](O)[C@H]1O [Lacto-N-Fucopentaose II] | collision cross section (N2) ([M+Rb]+): 278.4 Å² |
| 276.1 | 274.7 Å² | – | CC(=O)N[C@H]1[C@H](O[C@H]2[C@@H](O)[C@@H](CO)O[C@@H](O[C@H]3[C@H](O)[C@@H](O)C(O)O[C@@H]3CO)[C@@H]2O)O[C@H](CO)[C@@H](O)[C@@H]1O[C@@H]1O[C@H](CO)[C@H](O)[C@H](O)[C@H]1O[C@@H]1O[C@@H](C)[C@@H](O)[C@@H](O)[C@@H]1O (stereo partly drawn) [Lacto-N-Fucopentaose I] | collision cross section (N2) ([M+Cs]+): 275.6 Å²; collision cross section (N2) ([M+Li]+): 269.6 Å²; collision cross section (N2) ([M+Rb]+): 275.2 Å² |

| collision cross section (N2) ([M+Na]+) [Å²] | collision cross section (N2) ([M+K]+) | collision cross section (N2) ([M+H]+) [Å²] | Compound | further results |
| --- | --- | --- | --- | --- |
| 178.1 | – | – | OC[C@H]1O[C@@H](O[C@H]2[C@H](O)[C@@H](O)[C@@H](O)O[C@@H]2CO)[C@H](O)[C@@H](O)[C@H]1O [Lactose] | collision cross section (N2) ([M+Li]+): 186.3 Å² |
| – | – | 228.7 | CCC(C)[C@H](NC(=O)[C@@H](NC(=O)[C@@H](N)CCSC)C(C)C)C(=O)N[C@@H](CCCNC(=N)N)C(=O)O (stereo partly drawn) [MVIR] | – |
| – | – | 225 | N=C(N)NCCC[C@H](NC(=O)[C@H](CC(N)=O)NC(=O)[C@H](Cc1ccccc1)NC(=O)[C@@H](N)CC(N)=O)C(=O)O [NFNR] | – |
| – | 290.1 Å² | – | CCCCC/C=C\C/C=C\C/C=C\CCCCCCC(=O)O[C@H](COC(=O)CCCCCCCCCCCC)COP(=O)([O-])OCC[N+](C)(C)C [PC(33:3)] | – |
| – | 291.8 Å² | – | CC/C=C\C/C=C\C/C=C\C/C=C\C/C=C\C/C=C\CCC(=O)O[C@H](COC(=O)CCCCCCCCCCCC)COP(=O)([O-])OCC[N+](C)(C)C [PC(35:6)] | – |
| 292.5 | – | – | CC/C=C\C/C=C\C/C=C\C/C=C\C/C=C\C/C=C\CCC(=O)O[C@H](COC(=O)CCCCCCC/C=C\CCCC)COP(=O)([O-])OCC[N+](C)(C)C [PC(36:7)] | – |
| – | 298.2 Å² | – | CC/C=C\C/C=C\C/C=C\C/C=C\C/C=C\C/C=C\CCC(=O)O[C@H](COC(=O)CCCCCCCCCCCCCC)COP(=O)([O-])OCC[N+](C)(C)C [PC(37:6)] | – |
| – | 303.4 Å² | – | CC/C=C\C/C=C\C/C=C\C/C=C\C/C=C\CCCC(=O)O[C@H](COC(=O)CCCCCCC/C=C\CCCCCCCCC)COP(=O)([O-])OCC[N+](C)(C)C [PC(39:6)] | – |
| – | 303.8 Å² | – | CC/C=C\C/C=C\C/C=C\C/C=C\C/C=C\C/C=C\CCC(=O)OC[C@H](COP(=O)([O-])OCC[N+](C)(C)C)OC(=O)CCCCCCC/C=C\CCCCCCC [PC(39:7)] | – |
| 300.6 | – | – | CC=CCC=CCC=CCC=CCC=CCC=CCC(=O)OC[C@H](COP(=O)(O)OCC[N+](C)(C)C)OC(=O)CC=CCC=CCC=CCC=CCC=CCC=CC [PC(40:12)] | – |
| – | 297.8 Å² | – | CCCCCCCCCCCCCCCCCCCC(=O)O[C@H](COC(=O)CCCCCCCCCCCCCCCC)COP(=O)(O)OCCN [PE(37:0)] | – |
| 292.2 | 295 Å² | – | CCCCCCCCC/C=C\CCCCCCCC(=O)O[C@H](COC(=O)CCCCCCCCCCCCCCCCC)COP(=O)(O)OCCN [PE(37:1)] | – |
| 288.2 | 289.8 Å² | – | CCCCC/C=C\C/C=C\CCCCCCCC(=O)O[C@H](COC(=O)CCCCCCCCCCCCCCCCCC)COP(=O)(O)OCCN [PE(37:2)] | – |
| 286.2 | 286.5 Å² | – | CCCCC/C=C\C/C=C\CCCCCCCCCC(=O)O[C@H](COC(=O)CCCCCCC/C=C\CCCCCCC)COP(=O)(O)OCCN [PE(37:3)] | – |
| 286.4 | – | – | CCCC/C=C\C/C=C\CCCCCCCC(=O)OC[C@H](COP(=O)(O)OCCN)OC(=O)CCCCC/C=C\C/C=C\C/C=C\C/C=C\CCCCC [PE(39:6)] | – |
| 299.7 | – | – | CC/C=C\C/C=C\C/C=C\C/C=C\C/C=C\C/C=C\CCC(=O)OC[C@H](COP(=O)(O)OCCN)OC(=O)CC/C=C\C/C=C\C/C=C\C/C=C\C/C=C\C/C=C\CC [PE(44:12)] | – |
| 279.7 | – | – | CCCCC/C=C\C/C=C\CCCCCCCC(=O)O[C@H](COCCCCCCCCCCCCCCCC)COP(=O)(O)OCCN [PE(o34:2)] | – |
| 295 | – | – | CCCCC/C=C\C/C=C\C/C=C\C/C=C\CCCC(=O)O[C@H](COC(=O)CCCCCCCCCCCCCCCC)COP(=O)(O)OC[C@H](N)C(=O)O [PS(37:4)] | – |
| 290.2 | – | – | CCCCC/C=C\C/C=C\C/C=C\C/C=C\CCCC(=O)OC[C@H](COP(=O)(O)OC[C@H](N)C(=O)O)OC(=O)CCCC/C=C\C/C=C\C/C=C\CCCCC [PS(38:7)] | – |
| 295.6 | – | – | CC/C=C\C/C=C\C/C=C\C/C=C\C/C=C\C/C=C\CCC(=O)OC[C@H](COP(=O)(O)OC[C@H](N)C(=O)O)OC(=O)CCCCCCC/C=C\CCCCCCCC [PS(40:7)] | – |
